# Test results: US9873693B2 (Sunesis Pharmaceuticals, Inc., priority 2006, dated 2018)
# Key:
# phospho-akt (Thr308) = phospho-akt (Thr308) MSD ELISA in PC-3 cells; assay type: cell-based; details: Homo sapiens, PC-3, 2 h, PC-3 cells, 2 hours, no serum; read-out: Inhibition of P308 Akt in cells using MSD EC50
# Procedure, shortened: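 Read-out is MSD electrochemiluminescence after lysate capture overnight at 4 degrees and 1 hr RT detection-antibody step. Before lysis, overnight-plated PC-3 cells received three-fold serial dilutions of inhibitor in serum-free medium, with DMSO-only high controls.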
# dephosphorylated PDK1 = dephosphorylated PDK1 (Homo sapiens (Human), UniProt O15530); assay: PDK1 kinase assay (coupled PDK1/AKT/FAM-crosstide, IMAP); assay type: biochemical; details: 25 nM un-phosphorylated PDK1, 24 μM ATP; read-out: Inhibition of dephospo-PDK1 in vitro IC50
# Chain of dephosphorylated PDK1 (O15530 51-360): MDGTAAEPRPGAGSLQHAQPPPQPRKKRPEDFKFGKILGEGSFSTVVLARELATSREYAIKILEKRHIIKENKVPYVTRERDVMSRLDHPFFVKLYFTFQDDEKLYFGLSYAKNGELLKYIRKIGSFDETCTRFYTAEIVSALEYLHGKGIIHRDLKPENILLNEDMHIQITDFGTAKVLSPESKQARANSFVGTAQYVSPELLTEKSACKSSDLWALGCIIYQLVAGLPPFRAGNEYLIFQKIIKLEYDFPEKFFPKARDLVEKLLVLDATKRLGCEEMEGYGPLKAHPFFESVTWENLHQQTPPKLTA
# Procedure, shortened: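 The FAM-crosstide phosphorylation readout was IMAP polarization (ex 485/em 530 nm, 2 h binding), with 4-parameter fits of ΔmP data. The reaction ran 30 min at 25 °C with 24 μM ATP, and contained 25 nM phosphatase-treated PDK1 (aa 51–360) plus 30 nM unphosphorylated AKT2-PIFtide and 100 nM substrate. Buffer was 10 mM Tris pH 7.2, 10 mM MgCl2, 0.01% Triton X-100 and 1 mM DTT.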
structure (smiles),measurement,setting,value
O=C(NCc1nc(-c2c[nH]c3ncccc23)cs1)c1cccn(Cc2ccc(F)c(F)c2)c1=O [Cpd 112],EC50,phospho-akt (Thr308),< 1000 nM
same,IC50,dephosphorylated PDK1,< 500 nM
